Measurements from publication PMC6254837, “Investigating Biological Activity Spectrum for Novel Styrylquinazoline Analogues” (Molecules, 2009).
Values after ≈ are worked out from the molar mass of the structure shown. Values joined by “and” are separate entries in the source; they are usually repeats but may differ in a detail not shown here. Identical values can stand only once. Like-named read-outs stand apart in the source and are kept apart here.

Columns and labels:
[1] = test system: Mycobacterium avium complex CIT19/06; test: In vitro antimycobacterial evaluation (alamarBlue, 96 well plate); type: cell-based; conditions: 120 h, read-out: MIC/IC90 M. avium complex
[2] = test system: M. absessus CIT21/06; test: as above; type: cell-based; conditions: read-out: MIC/IC90 M. absessus
[3] = Lipophilicity HPLC determination (capacity factor k / calculated log k); type: physicochemical; conditions: RP-HPLC, C18, MeOH/H2O 55:45, non-buffered, isocratic
Description: Some groups have used a C18 chromatographic column with methanol-water mobile phases to obtain log kw, i.e., the retention factor extrapolated to 0% organic modifier, as an alternative to log P [50]. The log kw is obtained by performing several measurements with various ratios of water/organic solvent. Nevertheless determination of log kw has some disadvantages in that it is time consuming due to the various measurements that need to be undertaken before calculation of log kw. The main reason for the measurement is that it is more convenient to perform a systematic study of log k of various heteroaromatic compounds using mobile phases containing around 50% methanol due to various intramolecular interactions between heteroatoms and substituents. Therefore this study was performed using methanol/water (55:45) as the mobile phase. The conditions (non-buffered mobile phase) were chosen with respect to conditions of biological evaluations, which are performed mostly under neutral conditions (pH ~ 7). The lipophilicity data can be strongly influenced by intramolecular interactions under the applied chromatographic conditions which were investigated in the paper. The HPLC separation module Waters Alliance 2695 XE and Waters Photodiode Array Detector 2996 (Waters Corp., Milford, MA, U.S.A.) were used. The chromatographic column Symmetry® C18 5 μm, 4.6 × 250 mm, Part No. WAT054275, (Waters Corp., Milford, MA, U.S.A.) was used. The HPLC separation process was monitored by Millennium32® Chromatography Manager Software, Waters 2004 (Waters Corp.). The mixture of MeOH p.a. (55.0%) and H2O-HPLC – Mili-Q Grade (45.0%) was used as a mobile phase. The total flow of the column was 0.9 mL/min, injection 30 μL, column temperature 30 °C and sample temperature 10 °C. The detection wavelength 210 nm was chosen. The KI methanolic solution was used for the dead time (tD) determination. Retention times (tR) were measured in minutes. The capacity factors k were calculated using the Millennium32® Chromatography Manager Software according to formula k = (tR - tD)/tD, where tR is the retention time of the solute, whereas tD denotes the dead time obtained via an unretained analyte.

[4] = test system: M. kansasii CIT11/06; test: In vitro antimycobacterial evaluation (alamarBlue, 96 well plate); type: cell-based; conditions: Mycobacterium kansasii, CIT11/06, 120 h, read-out: MIC/IC90 M. kansasii
[5] = test system: M. smegmatis MC2155; test: as above; type: cell-based; conditions: Mycolicibacterium smegmatis
[6] = test system: photosynthetic electron transport (PET) in spinach chloroplasts; test: Inhibition of photosynthetic electron transport (PET) in spinach chloroplasts, DCPIP photoreduction; type: biochemical, Spinacia oleracea L.; conditions: phosphate buffer pH 7.2, DMSO up to 4%
Experimental: Chloroplasts were prepared from spinach (Spinacia oleracea L.) according to Masarovicova and Kralova. The inhibition of photosynthetic electron transport (PET) in spinach chloroplasts was determined spectrophotometrically (Genesys 6, Thermo Scientific, U.S.A.) using an artificial electron acceptor 2,6-dichlorophenol-indophenol (DCIPP) according to Kralova et al. and the rate of photosynthetic electron transport was monitored as a photoreduction of DCPIP. The measurements were carried out in phosphate buffer (0.02 mol/L, pH 7.2) containing sucrose (0.4 mol/L), MgCl2 (0.005 mol/L) and NaCl (0.015 mol/L). The chlorophyll content was 30 mg/L in these experiments and the samples were irradiated (~100 W/m^2) from 10 cm distance with a halogen lamp (250 W) using a 4 cm water filter to prevent warming of the samples (suspension temperature 22 °C). The studied compounds were dissolved in DMSO due to their limited water solubility. […] The inhibitory efficiency of the studied compounds was expressed by IC50 values, i.e. by molar concentration of the compounds causing 50% decrease in the oxygen evolution rate relative to the untreated control.

[7] = test system: photosynthetic electron transport (PET) in spinach chloroplasts; parameters: method as in earlier work; conditions: standard, read-out: PET inhibition IC50; cited from earlier work
[8] = Middlebrook broth, 37 °C five days
[9] = Middlebrook broth, 37 °C overnight
[10] = MC2155, Middlebrook broth, 37 °C overnight, read-out: MIC/IC90 M. smegmatis

Cc1nc2ccccc2c(=O)[nH]1 [Compound 1, 2-Methylquinazolin-4(3H)-one]
MIC [1]: > 300 µg/mL
MIC [2]: > 300 µg/mL
log k [3]: 0.1170
MIC [4]: > 300 µg/mL
MIC ([5]; MC2155, read-out: MIC/IC90 M. smegmatis): > 300 µg/mL

Cc1nc2ccccc2c(=O)n1CCO [Compound 2, 3-(2-Hydroxyethyl)-2-methylquinazolin-4(3H)-one]
MIC [1, 8]: > 300 µg/mL
MIC [2, 9]: > 300 µg/mL
IC50 [6]: 362 µM
log k [3]: 0.7047
MIC [4, 8]: > 300 µg/mL
MIC [5, 10]: > 300 µg/mL

O=c1[nH]c(/C=C/c2ccccc2)nc2ccccc12 [Compound 3a, 2-(E)-Styrylquinazolin-4(3H)-one]
MIC [1, 8]: > 300 µg/mL
MIC [2, 9]: > 300 µg/mL
log k [3]: 1.1148
MIC [4, 8]: > 300 µg/mL
MIC [5, 10]: > 300 µg/mL

COc1ccccc1/C=C/c1nc2ccccc2c(=O)[nH]1 [Compound 3b, 2-[(E)-2-(2-Methoxyphenyl)vinyl]quinazolin-4(3H)-one]
MIC [1, 8]: > 100 µg/mL
MIC [2, 9]: > 100 µg/mL
log k [3]: 1.1509
MIC [4, 8]: > 100 µg/mL
MIC [5, 10]: > 100 µg/mL

COc1cccc(/C=C/c2nc3ccccc3c(=O)[nH]2)c1 [Compound 3c, 2-[(E)-2-(3-Methoxyphenyl)vinyl]quinazolin-4(3H)-one]
MIC [1, 8]: > 100 µg/mL
MIC [2, 9]: > 100 µg/mL
log k [3]: 1.1837
MIC [4, 8]: > 100 µg/mL
MIC [5, 10]: > 100 µg/mL

COc1ccc(/C=C/c2nc3ccccc3c(=O)[nH]2)cc1 [Compound 3d, 2-[(E)-2-(4-Methoxyphenyl)vinyl]quinazolin-4(3H)-one]
MIC [1, 8]: > 100 µg/mL
MIC [2, 9]: > 100 µg/mL
IC50 [6]: 693 µM
log k [3]: 1.1351
MIC [4, 8]: > 100 µg/mL
MIC [5, 10]: > 100 µg/mL

COc1ccc(/C=C/c2nc3ccccc3c(=O)[nH]2)c(OC)c1 [Compound 3e, 2-[(E)-2-(2,4-Dimethoxyphenyl)vinyl]quinazolin-4(3H)-one]
MIC [1, 8]: 80 µg/mL (≈ 259 µM)
MIC [2, 9]: 80 µg/mL (≈ 259 µM)
IC50 [6]: 391 µM
log k [3]: 1.1982
MIC [4, 8]: 20 µg/mL (≈ 64.9 µM)
MIC [5, 10]: > 100 µg/mL

O=c1[nH]c(/C=C/c2cccc(Cl)c2)nc2ccccc12 [Compound 3f, 2-[(E)-2-(3-Chlorophenyl)vinyl]quinazolin-4(3H)-one]
MIC [1, 8]: > 300 µg/mL
MIC [2, 9]: > 300 µg/mL
IC50 [6]: 1030 µM
log k [3]: 1.5059
MIC [4, 8]: > 300 µg/mL
MIC [5, 10]: > 300 µg/mL

O=c1[nH]c(/C=C/c2ccccc2Br)nc2ccccc12 [Compound 3g, 2-[(E)-2-(2-Bromophenyl)vinyl]quinazolin-4(3H)-one]
MIC [1, 8]: > 100 µg/mL
MIC [2, 9]: > 100 µg/mL
log k [3]: 1.4830
MIC [4, 8]: > 100 µg/mL
MIC [5, 10]: > 100 µg/mL

O=c1[nH]c(/C=C/c2cccc(Br)c2)nc2ccccc12 [Compound 3h, 2-[(E)-2-(3-Bromophenyl)vinyl]quinazolin-4(3H)-one]
MIC [1, 8]: > 100 µg/mL
MIC [2, 9]: > 100 µg/mL
IC50 [6]: 561 µM
log k [3]: 1.5904
MIC [4, 8]: > 100 µg/mL
MIC [5, 10]: > 100 µg/mL

O=c1[nH]c(/C=C/c2ccc(Br)cc2)nc2ccccc12 [Compound 3i, 2-[(E)-2-(4-Bromophenyl)vinyl]quinazolin-4(3H)-one]
MIC [1, 8]: > 100 µg/mL
MIC [2, 9]: > 100 µg/mL
IC50 [6]: 665 µM
log k [3]: 1.5927
MIC [4, 8]: > 100 µg/mL
MIC [5, 10]: > 100 µg/mL

O=Cc1ccc(/C=C/c2nc3ccccc3c(=O)[nH]2)cc1 [Compound 3j, 2-[(E)-2-(4-Carbaldehydephenyl)vinyl]quinazolin-4(3H)-one]
log k [3]: 0.8005

O=c1[nH]c(/C=C/c2ccc(O)c(O)c2O)nc2ccccc12 [Compound 3k, 2-[(E)-2-(2,3,4-Trihydroxyphenyl)vinyl]quinazolin-4(3H)-one]
log k [3]: 0.5510

Clc1nc(/C=C/c2ccccc2)nc2ccccc12 [Compound 4a, 4-Chloro-2-(E)-styrylquinazoline]
MIC [1, 8]: > 100 µg/mL
MIC [2, 9]: > 100 µg/mL
IC50 [6]: 285 µM
log k [3]: 1.1088
MIC [4, 8]: > 100 µg/mL
MIC [5, 10]: > 100 µg/mL

COc1ccccc1/C=C/c1nc(Cl)c2ccccc2n1 [Compound 4b, 4-Chloro-2-[(E)-2-(2-methoxyphenyl)vinyl]quinazoline]
MIC [1, 8]: 80 µg/mL (≈ 270 µM)
MIC [2, 9]: 80 µg/mL (≈ 270 µM)
log k [3]: 1.1497
MIC [4, 8]: 60 µg/mL (≈ 202 µM)
MIC [5, 10]: > 100 µg/mL

COc1cccc(/C=C/c2nc(Cl)c3ccccc3n2)c1 [Compound 4c, 4-Chloro-2-[(E)-2-(3-methoxyphenyl)vinyl]quinazoline]
MIC [1, 8]: > 100 µg/mL
MIC [2, 9]: > 100 µg/mL
IC50 [6]: 303 µM
log k [3]: 1.1827
MIC [4, 8]: 60 µg/mL (≈ 202 µM)
MIC [5, 10]: > 100 µg/mL

COc1ccc(/C=C/c2nc(Cl)c3ccccc3n2)cc1 [Compound 4d, 4-Chloro-2-[(E)-2-(4-methoxyphenyl)vinyl]quinazoline]
MIC [1, 8]: > 100 µg/mL
MIC [2, 9]: > 100 µg/mL
IC50 [6]: 390 µM
log k [3]: 1.1337
MIC [4, 8]: > 100 µg/mL
MIC [5, 10]: > 100 µg/mL

COc1ccc(/C=C/c2nc(Cl)c3ccccc3n2)c(OC)c1 [Compound 4e, 4-Chloro-2-[(E)-2-(2,4-dimethoxyphenyl)vinyl]quinazoline]
MIC [1, 8]: > 100 µg/mL
MIC [2, 9]: > 100 µg/mL
IC50 [6]: 508 µM
log k [3]: 1.1953
MIC [4, 8]: > 100 µg/mL
MIC [5, 10]: > 100 µg/mL

CN(C)C(=O)Nc1ccc(Cl)c(Cl)c1 [DCMU, 3-(3,4-dichlorophenyl)-1,1-dimethylurea]
IC50 [7]: ~1.9 µM and 1.9 µM

NNC(=O)c1ccncc1 [INH, isoniazid, reference compound]
MIC [1, 8]: < 10 µg/mL
MIC [2, 9]: > 100 µg/mL
MIC [4, 8]: < 10 µg/mL
MIC [5, 10]: 39 µg/mL (≈ 284 µM)
